Reference: the NIST ThermoML archive (doi:10.1021/je800345j)
Numbers after ± are expanded uncertainties.

How the values were obtained:
[1] = 298.15 K; 101.33 kPa; Liquid
[2] = refractive index (Na D-line) (dimensionless); details: 293.15 K; 101.33 kPa; Liquid; Standard Abbe refractometry

SMILES: CC(=O)O [acetic acid]
- mass density [1]: 1047.4 ± 0.3 kg/m3
- refractive index [2]: 1.372 ± 0.0004

SMILES: CC(=O)CC(C)=O [2,4-pentanedione]
- mass density [1]: 971.9 ± 0.3 kg/m3
- refractive index [2]: 1.4491 ± 0.0004

SMILES: C=C(C)OC(C)=O [1-methylvinyl ethanoate]
- mass density [1]: 927.8 ± 0.3 kg/m3
- refractive index [2]: 1.4033 ± 0.0004
